Here are results for eleven compounds from patent US12162820B2 (TAIWANJ PHARMACEUTICALS CO., LTD., priority 2019, dated 2024).

Format in all cases: biochemical
The target in test [1] is T1, HDAC1 (Homo sapiens, UniProt Q13547).
T1 construct: purchased Enzo Life Sciences
Kind of test: HDAC Inhibition Screening Assay (FLUOR DE LYS Fluorimetric Drug Discovery Kit), HDAC1. As to conditions: for inhibition at 2 µM: 2 μM compound; for inhibition at 10 µM: 10 μM compound; for inhibition at 50 µM: 50 μM compound. How it is done:
(§1) The HDAC1/HDAC2/HDAC3 in vitro activities are detected by Enzo Life Sciences' HDAC1/HDAC2/HDAC3 Fluorimetric Drug Discovery Kit. The assay is based on the FLUOR DE LYS® Substrate and FLUOR DE LYS® Developer combination. The assay procedure has two steps. First, the FLUOR DE LYS® Substrate, which comprises an acetylated lysine side chain, is incubated with HDAC1/HDAC2/HDAC3, respectively. Deacetylation of the substrate sensitizes the substrate so that, in the second step, treatment with the FLUOR DE LYS® Developer produces a fluorophore. The signals of the test compounds (Compounds 1˜83; at concentrations of 2 μM, 10 μM and 50 μM) in 96-well plates are detected at 360 nm or 485 nm excitation and 460 nm or 530 nm emission with a Molecular Devices SpectraMax i3 Imaging Cytometer. The HDAC1/HDAC2/HDAC3 activities are expressed in percentage of basal control minus baseline control.

Test [2] deals with T2, HDAC2 (Homo sapiens, UniProt Q92769).
T2 construct: purchased Enzo Life Sciences
T2 sequence (Q92769 whole entry): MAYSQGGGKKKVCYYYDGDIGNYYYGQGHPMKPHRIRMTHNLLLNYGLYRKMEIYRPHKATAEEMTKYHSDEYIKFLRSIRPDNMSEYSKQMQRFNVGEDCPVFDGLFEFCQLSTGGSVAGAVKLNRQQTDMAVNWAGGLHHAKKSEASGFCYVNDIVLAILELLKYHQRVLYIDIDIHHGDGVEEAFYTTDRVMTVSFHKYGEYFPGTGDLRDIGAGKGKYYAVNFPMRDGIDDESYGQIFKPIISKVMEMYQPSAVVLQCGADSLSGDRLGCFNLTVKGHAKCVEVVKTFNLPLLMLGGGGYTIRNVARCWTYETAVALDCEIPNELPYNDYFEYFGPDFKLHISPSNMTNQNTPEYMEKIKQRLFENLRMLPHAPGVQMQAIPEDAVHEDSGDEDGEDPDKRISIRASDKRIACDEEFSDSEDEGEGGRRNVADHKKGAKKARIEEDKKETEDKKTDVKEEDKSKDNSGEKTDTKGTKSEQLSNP
Kind of test: HDAC Inhibition Screening Assay (FLUOR DE LYS Fluorimetric Drug Discovery Kit), HDAC2. The settings on record: for inhibition at 2 µM: 2 μM compound; for inhibition at 10 µM: 10 μM compound; for inhibition at 50 µM: 50 μM compound. How it is done:
as §1

For test [3], the target named is T3, HDAC3 (Homo sapiens, UniProt O15379).
T3 construct: purchased Enzo Life Sciences
T3 sequence (O15379 whole entry): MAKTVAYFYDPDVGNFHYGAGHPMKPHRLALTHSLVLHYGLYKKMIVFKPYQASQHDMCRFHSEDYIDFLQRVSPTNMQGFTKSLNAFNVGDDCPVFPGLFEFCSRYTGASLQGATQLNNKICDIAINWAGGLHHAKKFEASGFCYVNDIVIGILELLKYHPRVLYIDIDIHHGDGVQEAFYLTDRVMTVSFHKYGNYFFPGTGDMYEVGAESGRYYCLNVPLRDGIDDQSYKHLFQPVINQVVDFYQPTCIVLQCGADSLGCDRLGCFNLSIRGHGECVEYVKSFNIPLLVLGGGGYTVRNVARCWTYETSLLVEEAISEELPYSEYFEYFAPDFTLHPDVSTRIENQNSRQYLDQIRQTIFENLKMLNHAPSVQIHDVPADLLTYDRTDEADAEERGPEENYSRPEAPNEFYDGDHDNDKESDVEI
T3 sequence (O75376 395-489 partner limits assumed): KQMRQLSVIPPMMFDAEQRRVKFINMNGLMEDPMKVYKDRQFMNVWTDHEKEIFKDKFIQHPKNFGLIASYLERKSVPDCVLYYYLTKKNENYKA
Kind of test: HDAC Inhibition Screening Assay (FLUOR DE LYS Fluorimetric Drug Discovery Kit), HDAC3. As to conditions: for inhibition at 2 µM: 2 μM compound; for inhibition at 10 µM: 10 μM compound; for inhibition at 50 µM: 50 μM compound. The method, then:
as §1

For test [4], the target named is T4, ATX (autotaxin) (Homo sapiens, UniProt Q13822).
T4 construct: purchased Cayman 10803
Kind of test: Autotaxin Inhibition Screening Assay (choline release from LPC, LPC-CR). The settings on record: for inhibition at 4 µM: 4 μM compound; for inhibition at 20 µM: 20 μM compound; for inhibition at 50 µM: 50 μM compound. The method, then: ATX (autotaxin) activity was measured by choline release from LPC in presence or absence of test compounds (Compounds 1˜83; at concentrations of 4 μM, 20 μM and 50 μM). Twenty (20) ng ATX (10803, Cayman, MI, USA) was incubated with 100 μM 14:0 LPC (855575P, Avanti, AL, USA) in a final volume of 100 μL buffer containing 50 mM Tris pH 8.0, 0.01% Triton X-100, 50 mM CaCl2, 1 unit/ml choline oxidase, 2 unit/ml horseradish peroxidase (HRP), 2 mM homovanilic acid (HVA). The relative amount of released choline was measured by HVA fluorescence in a 96-well plate. Fluorescent intensity was determined at λex/λem=320/450 nm every 60 sec for 90 min with a SpectraMax i3 (Molecular Devices, CA, USA). Data analysis was performed using GraphPad Prism (GraphPad, La Jolla CA, USA). Inhibition %=[1−(SlopeTA−SlopeBlank)/(SlopeVehicle−SlopeBlank)]×100% HDAC Inhibition Screening Assay

T1 sequence (Q13547 whole entry): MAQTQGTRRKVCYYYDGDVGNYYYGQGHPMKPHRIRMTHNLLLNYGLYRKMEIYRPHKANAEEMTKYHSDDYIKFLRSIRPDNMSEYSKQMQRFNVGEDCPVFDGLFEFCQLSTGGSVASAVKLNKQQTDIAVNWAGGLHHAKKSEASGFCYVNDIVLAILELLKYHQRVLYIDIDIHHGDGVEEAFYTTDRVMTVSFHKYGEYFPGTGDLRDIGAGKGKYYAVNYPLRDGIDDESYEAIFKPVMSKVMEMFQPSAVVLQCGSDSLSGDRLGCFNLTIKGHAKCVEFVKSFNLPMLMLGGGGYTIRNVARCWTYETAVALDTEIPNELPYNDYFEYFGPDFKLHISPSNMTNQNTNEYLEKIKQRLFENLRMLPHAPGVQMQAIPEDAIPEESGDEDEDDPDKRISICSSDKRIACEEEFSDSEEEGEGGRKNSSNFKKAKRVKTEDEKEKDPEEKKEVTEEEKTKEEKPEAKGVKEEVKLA

For the compound `COc1ccc(S(=O)(=O)NC2CCc3cc(/C=C/C(=O)NO)ccc32)cc1` (stereo not drawn) [Compound 20, (E)-N-hydroxy-3-(1-((4-methoxyphenyl)sulfonamido)-2,3-dihydro-1H-inden-5-yl)acrylamide], in test [1], the inhibition (as a rule, the change of the read-out against control, counted positive when it falls) at 2 µM was 50 to 80%; the inhibition at 10 µM was more than 80%; the inhibition at 50 µM is more than 80%. Moreover, in test [2], the inhibition at 2 µM lay within 50 to 80%, the inhibition at 10 µM is more than 80% and the inhibition at 50 µM was more than 80%. For the same compound, in test [3], the inhibition at 2 µM was more than 80%, the inhibition at 10 µM is more than 80% and the inhibition at 50 µM is more than 80%. Also, in test [4], the inhibition at 4 µM is less than 50%, the inhibition at 20 µM is less than 50% and the inhibition at 50 µM was less than 50%.

For the compound `Nc1cc(F)ccc1NC(=O)/C=C/c1ccc2c(c1)CCC2NC(=O)c1cc(C(F)(F)F)cc(C(F)(F)F)c1` (stereo not drawn) [Compound 21, (E)-N-(5-(3-((2-amino-4-fluorophenyl)amino)-3-oxoprop-1-en-1-yl)-2,3-dihydro-1H-inden-1-yl)-3,5-bis(trifluoromethyl)benzamide], in test [1], the inhibition at 2 µM is less than 50%, the inhibition at 10 µM is less than 50% and the inhibition at 50 µM is less than 50%. Moreover, in test [2], the inhibition at 2 µM was less than 50%, the inhibition at 10 µM is less than 50% and the inhibition at 50 µM is less than 50%. Also, in test [3], the inhibition at 2 µM was less than 50%, the inhibition at 10 µM is less than 50% and the inhibition at 50 µM was less than 50%. In test [4], this compound registered an inhibition at 4 µM of less than 50%, an inhibition at 20 µM of less than 50% and an inhibition at 50 µM of less than 50%.

In the case of `O=C(/C=C/c1ccc2c(c1)CCC2NC(=O)c1cc(C(F)(F)F)cc(C(F)(F)F)c1)NO` (stereo not drawn) [Compound 22, (E)-N-(5-(3-(hydroxyamino)-3-oxoprop-1-en-1-yl)-2,3-dihydro-1H-inden-1-yl)-3,5-bis(trifluoromethyl)benzamide], in test [1], the inhibition at 2 µM was in the range of 50 to 80%, the inhibition at 10 µM is more than 80% and the inhibition at 50 µM was more than 80%. Also, in test [2], the inhibition at 2 µM was 50 to 80%, the inhibition at 10 µM is more than 80% and the inhibition at 50 µM is more than 80%. Moreover, in test [3], the inhibition at 2 µM was 50 to 80%, the inhibition at 10 µM is more than 80% and the inhibition at 50 µM was more than 80%. For the same compound, in test [4], the inhibition at 4 µM is less than 50%, the inhibition at 20 µM was less than 50% and the inhibition at 50 µM was less than 50%.

With `Nc1cc(F)ccc1NC(=O)/C=C/c1ccc2c(c1)CCCC2NC(=O)c1cc(C(F)(F)F)cc(C(F)(F)F)c1` (stereo not drawn) [Compound 23], in test [1], the inhibition at 2 µM was less than 50%, the inhibition at 10 µM was less than 50% and the inhibition at 50 µM is less than 50%. Also, in test [2], the inhibition at 2 µM is less than 50%, the inhibition at 10 µM was less than 50% and the inhibition at 50 µM is less than 50%. Further, in test [3], the inhibition at 2 µM is less than 50%, the inhibition at 10 µM was less than 50% and the inhibition at 50 µM was less than 50%. Moreover, in test [4], the inhibition at 4 µM is less than 50%, the inhibition at 20 µM was less than 50% and the inhibition at 50 µM is less than 50%.

As for `O=C(/C=C/c1ccc2c(c1)CCCC2NC(=O)c1cc(C(F)(F)F)cc(C(F)(F)F)c1)NO` (stereo not drawn) [Compound 24, (E)-N-(6-(3-(hydroxyamino)-3-oxoprop-1-en-1-yl)-1,2,3,4-tetrahydronaphthalen-1-yl)-3,5-bis(trifluoromethyl)benzamide], in test [1], the inhibition at 2 µM was less than 50%, the inhibition at 10 µM was less than 50% and the inhibition at 50 µM fell in the range of 50 to 80%. Also, in test [2], the inhibition at 2 µM was less than 50%, the inhibition at 10 µM was less than 50% and the inhibition at 50 µM lay within 50 to 80%. Further, in test [3], the inhibition at 2 µM is less than 50%, the inhibition at 10 µM is less than 50% and the inhibition at 50 µM was less than 50%. For the same compound, in test [4], the inhibition at 4 µM is less than 50%, the inhibition at 20 µM is less than 50% and the inhibition at 50 µM was less than 50%.

On to `COc1ccc(C(=O)NC2CCc3cc(/C=C/C(=O)NO)ccc32)cc1` (stereo not drawn) [Compound 25, (E)-N-(5-(3-(hydroxyamino)-3-oxoprop-1-en-1-yl)-2,3-dihydro-1H-inden-1-yl)-4-methoxybenz amide], for which, in test [1], the inhibition at 2 µM is more than 80%, the inhibition at 10 µM was more than 80% and the inhibition at 50 µM was more than 80%. Moreover, in test [2], the inhibition at 2 µM was more than 80%, the inhibition at 10 µM was more than 80% and the inhibition at 50 µM was more than 80%. Besides, in test [3], the inhibition at 2 µM was more than 80%, the inhibition at 10 µM was more than 80% and the inhibition at 50 µM was more than 80%. Moreover, in test [4], the inhibition at 4 µM was less than 50%, the inhibition at 20 µM is less than 50% and the inhibition at 50 µM was less than 50%.

With `CN(C)c1ccc(C(=O)NC2CCc3cc(/C=C/C(=O)NO)ccc32)cc1` (stereo not drawn) [Compound 26, (E)-4-(dimethylamino)-N-(5-(3-(hydroxyamino)-3-oxoprop-1-en-1-yl)-2,3-dihydro-1H-inden-1-yl)benzamide], in test [1], the inhibition at 2 µM is more than 80%, the inhibition at 10 µM is more than 80% and the inhibition at 50 µM is more than 80%. Further, in test [2], the inhibition at 2 µM was more than 80%, the inhibition at 10 µM was more than 80% and the inhibition at 50 µM is more than 80%. Also, in test [3], the inhibition at 2 µM is more than 80%, the inhibition at 10 µM was more than 80% and the inhibition at 50 µM is more than 80%. In test [4], this compound came in with an inhibition at 4 µM of less than 50%, an inhibition at 20 µM of less than 50% and an inhibition at 50 µM of less than 50%.

Turning to `CCN(CC)c1ccc(C(=O)NC2CCc3cc(/C=C/C(=O)Nc4ccc(F)cc4N)ccc32)cc1` (stereo not drawn) [Compound 27], in test [1], the inhibition at 2 µM is less than 50%, the inhibition at 10 µM is less than 50% and the inhibition at 50 µM is less than 50%. Moreover, in test [2], the inhibition at 2 µM is less than 50%, the inhibition at 10 µM is less than 50% and the inhibition at 50 µM was less than 50%. In test [3], the inhibition at 2 µM was less than 50%, the inhibition at 10 µM was less than 50% and the inhibition at 50 µM was less than 50%. In test [4], this compound displayed an inhibition at 4 µM of less than 50%, an inhibition at 20 µM of less than 50% and an inhibition at 50 µM of less than 50%.

As for `CCN(CC)c1ccc(C(=O)NC2CCc3cc(/C=C/C(=O)NO)ccc32)cc1` (stereo not drawn) [Compound 28, (E)-4-(diethylamino)-N-(5-(3-(hydroxyamino)-3-oxoprop-1-en-1-yl)-2,3-dihydro-1H-inden-1-yl)benzamide], in test [1], the inhibition at 2 µM was more than 80%, the inhibition at 10 µM was more than 80% and the inhibition at 50 µM was more than 80%. In test [2], the inhibition at 2 µM was more than 80%, the inhibition at 10 µM was more than 80% and the inhibition at 50 µM is more than 80%. Further, in test [3], the inhibition at 2 µM was more than 80%, the inhibition at 10 µM is more than 80% and the inhibition at 50 µM was more than 80%. For the same compound, in test [4], the inhibition at 4 µM was less than 50%, the inhibition at 20 µM is less than 50% and the inhibition at 50 µM is less than 50%.

As to `CCN(CC)c1ccc(C(=O)NC2CCc3cc(/C=C/C(=O)NCCCCCC(=O)Nc4ccc(F)cc4N)ccc32)cc1` (stereo not drawn) [Compound 29, (E)-N-(5-(3-((6-((2-amino-4-fluorophenyl)amino)-6-oxohexyl)amino)-3-oxoprop-1-en-1-yl)-2,3-dihydro-1H-inden-1-yl)-4-(diethylamino)benzamide], in test [1], the inhibition at 2 µM was less than 50%, the inhibition at 10 µM is less than 50% and the inhibition at 50 µM is less than 50%. Further, in test [2], the inhibition at 2 µM is less than 50%, the inhibition at 10 µM was less than 50% and the inhibition at 50 µM fell in the range of 50 to 80%. In addition, in test [3], the inhibition at 2 µM is less than 50%, the inhibition at 10 µM was less than 50% and the inhibition at 50 µM is less than 50%. In test [4], this compound displayed an inhibition at 4 µM of less than 50%, an inhibition at 20 µM of less than 50% and an inhibition at 50 µM of less than 50%.

As for `CCN(CC)c1ccc(C(=O)NC2CCc3cc(/C=C/C(=O)NCCCCCC(=O)NO)ccc32)cc1` (stereo not drawn) [Compound 30, (E)-4-(diethylamino)-N-(5-(3-((6-(hydroxyamino)-6-oxohexyl)amino)-3-oxoprop-1-en-1-yl)-2,3-dihydro-1H-inden-1-yl)benzamide], in test [1], the inhibition at 2 µM was more than 80%, the inhibition at 10 µM was more than 80% and the inhibition at 50 µM is more than 80%. Besides, in test [2], the inhibition at 2 µM is more than 80%, the inhibition at 10 µM is more than 80% and the inhibition at 50 µM was more than 80%. In test [3], the inhibition at 2 µM was more than 80%, the inhibition at 10 µM is more than 80% and the inhibition at 50 µM was more than 80%. In test [4], this compound displayed an inhibition at 4 µM of less than 50%, an inhibition at 20 µM of less than 50% and an inhibition at 50 µM of 50 to 80%.
